Laboratory results: patent publication US20220151921A1, “MONOCYTE-SELECTIVE DRUG DELIVERY SYSTEM USING SINGLE-WALLED CARBON NANOTUBES TO INDUCE EFFEROCYTOSIS” (The Board of Trustees of the Leland Stanford Junior …, priority 2019, published 2022)

Columns and labels:
SHP-1 = SHP-1 (Homo sapiens, UniProt P29350); conditions: cited from earlier work
TPI release assay = type: physicochemical; conditions: PBS pH 5.5 and 6.5, carbonate buffer pH 9, through day 7
Description: TPI release Assay. We conducted assays to evaluate TPI release from SWNTs in carbonate buffer (pH 9) and PBS buffer (pH 6.5 and 5.5). SWNT-TPI (200 μL, 16.5 TPI molecules/SWNT on average) was added to MINI Dialysis Devices (MWCO: 20K) and the volume of release medium was 3 mL. At fixed timepoints from 1 day to 7 days, 2 μL of the outlet medium was removed to test the rate of TPI release. The cumulative drug release (CDR) percentage was calculated by the following equation: CDR (%)=Wreleased/Wloaded×100% Here, CDR represents the cumulative drug release percentage, Wreleased represents the mass of released TPI in the release media, Wloaded represents the total mass of TPI. TPI release in serum (20% Fetal Bovine Serum (FBS) in Phosphate-buffered saline (PBS)): the timepoints, sample volume, and calculation methods were identical to the above.

RAW 264.7 cells = experiment: Cell proliferation assay (modified MTT); type: cell-based, murine
Description: Cell Proliferation Assay. A modified MTT (3-[4,5-dimethyl-thiazol-2-yl]-2,5-diphenyltetrazolium bromide) assay was performed to analyze macrophage proliferation. RAW 264.7 cells were plated at 25,000 cells/well in a 96-well plate grown overnight at 37°C., and serum-starved for the next 24 hrs. Cells were stimulated with 10% FBS for 24 hrs with SWNTs (4 nM), SWNT-TPI (TPI: 25 nM and 50 nM), or TPI (25 nM), and then incubated with 10 μL of MTT AB solution (Millipore, Billerica) for 2 hr. 100 μL of acidic isopropanol (0.04N HCl) was added to each well and the absorbance was measured at 570 nm (reference wavelength 650 nm) on an ELISA plate reader a SpectraMax 190 Microplate Reader (Molecular Devices). Statistical analysis Statistical differences were determined by one-way ANOVA, and results were expressed as means±SE. p-value<0.05 and p-value<0.01 were considered to indicate statistical significance. Statistical analyses were performed using GraphPad Prism 7 (GraphPad Inc.).

Chain of SHP-1 (P29350 whole entry): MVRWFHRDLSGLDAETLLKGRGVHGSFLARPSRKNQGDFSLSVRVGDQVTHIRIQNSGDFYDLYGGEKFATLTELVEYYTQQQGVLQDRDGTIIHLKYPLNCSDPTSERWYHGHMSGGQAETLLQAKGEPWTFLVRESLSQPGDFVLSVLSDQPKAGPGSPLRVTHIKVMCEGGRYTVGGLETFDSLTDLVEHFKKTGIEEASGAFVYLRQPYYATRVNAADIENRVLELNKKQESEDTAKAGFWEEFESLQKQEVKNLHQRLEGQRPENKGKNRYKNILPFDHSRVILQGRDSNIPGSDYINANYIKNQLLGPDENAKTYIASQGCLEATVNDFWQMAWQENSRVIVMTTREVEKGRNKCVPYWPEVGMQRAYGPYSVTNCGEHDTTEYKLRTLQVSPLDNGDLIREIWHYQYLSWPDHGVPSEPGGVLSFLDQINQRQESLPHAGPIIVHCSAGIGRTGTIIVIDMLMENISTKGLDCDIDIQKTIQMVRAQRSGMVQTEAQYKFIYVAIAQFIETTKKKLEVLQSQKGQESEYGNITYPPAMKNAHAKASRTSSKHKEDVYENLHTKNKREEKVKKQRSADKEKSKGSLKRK

Structure (SMILES) | IC50 (SHP-1) [nM] | selectivity for SHP-1 over SHP-2 (SHP-1) | effectiveness as SHP-1 inhibitor relative to sodium stibogluconate (SHP-1; versus sodium stibogluconate) | TPI release from SWNTs in saline buffers (TPI release assay) | RAW cell proliferation (RAW 264.7 cells)
O=S(=O)(O)c1ccc2cc(N=Nc3cc(S(=O)(=O)O)c4cccnc4c3O)ccc2c1 [NSC87877] | 355 |  |  |  | 
O=C1C=CC(=O)C(c2cc(Cl)ccc2Cl)=C1 [TPI, 2-(2,5-dichlorophenyl)-2,5-cyclohexadiene-1,4-dione] | 40 | selective toward SHP-1 | over two orders of magnitude | accelerated by progressively more acidic conditions | no significant effect
